In series [1] the test system is CEM cells. In words: Intrinsic toxicity of test compound in uninfected CEM cells (MTT). The format is cell-based. Particulars: Table 21. The source says: Methods, 20, 309-321 (1988).
Series [2] concerns the target T1, HIV protease (Human immunodeficiency virus type 1 group M subtype B, UniProt P04585).
T1 construct: HIV protease is diluted in the assay buffer to a final enzyme concentration of 12.3 nanomolar, based on a molecular weight of 10,780
As to the kind of experiment: HIV protease enzyme assay (fluorescence, substrate 2-Ile-Nle-Phe(p-NO2)-Gln-ArgNH2). Conditions: for IC50: HIV protease enzyme assay. The class given is biochemical. On the procedure:
The enzyme method is described below. […] The positive control is MVT-101 (Miller, M. et al, Science, 246, 1149 (1989)] The assay conditions are as follows:
Assay buffer: 20 mM sodium phosphate, pH 6.4 20% glycerol 1 mM EDTA 1 mM DTT 0.1% CHAPS
The above described substrate is dissolved in DMSO, then diluted 10 fold in assay buffer. Final substrate concentration in the assay is 80 μM.
The final concentration of DMSO is 14% and the final concentration of glycerol is 18%. The test compound is dissolved in DMSO and diluted in DMSO to 10× the test concentration; 10 μl of the enzyme preparation is added, the materials mixed and then the mixture is incubated at ambient temperature for 15 minutes. The enzyme reaction is initiated by the addition of 40 μl of substrate. The increase in fluorescence is monitored at 4 time points (0, 8, 16 and 24 minutes) at ambient temperature. Each assay is carried out in duplicate wells.

Setting [3] is: Table 19B, read-out: IC50 (uM) or % inhib: IC50.
[4] abbreviates: Table 20, read-out: IC50 (uM) or % inhibition: IC50.

Each structure is given as a SMILES string. Like-named read-outs stand apart in the source and are kept apart here.

By IC50 is commonly meant the concentration that gives 50% inhibition.

`CC(C)CN(C[C@@H](O)[C@H](Cc1ccccc1)NC(=O)OCc1cccnc1)S(=O)(=O)c1ccccc1` [Example 16]: in series [1], the “TD50 (nM)” value was 62,000 nM. In addition, the 50% inhibitory concentration (IC50) in series [2] (Table 21, read-out: IC50) worked out at 0.009 µM.

As for `COc1ccc(S(=O)(=O)N(CC(C)C)C[C@@H](O)[C@H](Cc2ccccc2)NC(=O)OCc2cccnc2)cc1` [Example 17], in series [1], the “TD50 (nM)” value is given as 59,000 nM. The half-maximal inhibitory concentration (IC50) in series [2] (Table 21, read-out: IC50) came out at 0.004 µM.

Turning to `COc1ccc(S(=O)(=O)N(CC(C)C)C[C@@H](O)[C@H](Cc2ccccc2)NC(=O)c2ccccc2)cc1` [Example 28], the “TD50 (nM)” value in series [1] is listed as 213,000 nM. On to `COc1ccc(S(=O)(=O)N(CC(C)C)C[C@@H](O)[C@H](Cc2ccccc2)NC(=O)c2ccccc2C)cc1` [Example 29], for which the “TD50 (nM)” value in series [1] is given as 196,000 nM. For `COc1ccc(S(=O)(=O)N(CC(C)C)C[C@@H](O)[C@H](Cc2ccccc2)NC(=O)c2ccccc2Cl)cc1` [Example 30], in series [1], the “TD50 (nM)” value is on record as 154,000 nM. Consider `CC(C)CN(C[C@@H](O)[C@H](Cc1ccccc1)NC(=O)OCc1cncs1)S(=O)(=O)c1ccc(N)cc1` [Example 61], for which, in series [2] (Table 21, read-out: IC50), the concentration for half-maximal inhibition (IC50) turned out to be 0.016 µM. `Cc1ccccc1C(=O)N[C@@H](Cc1ccccc1)[C@H](O)CN(CC(C)C)S(=O)(=O)c1ccc(N)cc1` [Example 62]: the IC50 in series [2] (Table 21, read-out: IC50) turned out to be 0.028 µM.

As to `Cc1c(O)cccc1C(=O)N[C@@H](Cc1ccccc1)[C@H](O)CN(CC(C)C)S(=O)(=O)c1ccc(N)cc1` [Example 63], the IC50 in series [2] (Table 21, read-out: IC50) turned out to be 0.007 µM. The same measure, in the same setting: to `CC(C)CN(C[C@@H](O)[C@H](Cc1ccccc1)NC(=O)OCc1cncs1)S(=O)(=O)c1cccc(N)c1` [Example 64] belongs 0.007 µM; to `Cc1c(O)cccc1C(=O)N[C@@H](Cc1ccccc1)[C@H](O)CN(CC(C)C)S(=O)(=O)c1cccc(N)c1` [Example 65], 0.004 µM. As for `CC(C)CN(C[C@@H](O)[C@H](Cc1ccccc1)NC(=O)OCc1cccnc1)S(=O)(=O)c1ccc2c(c1)CCO2` [Example 66], in series [2] (Table 21, read-out: IC50), the half-inhibitory concentration (IC50) amounted to 0.004 µM. Turning to `CC(C)CN(C[C@@H](O)[C@H](Cc1ccccc1)NC(=O)OCc1cncs1)S(=O)(=O)c1ccc2c(c1)CCO2` [Example 67], in series [2] (Table 21, read-out: IC50), the IC50 came to 0.005 µM. The same measure, in the same setting: to `Cc1c(N)cccc1C(=O)N[C@@H](Cc1ccccc1)[C@H](O)CN(CC(C)C)S(=O)(=O)c1ccc2c(c1)CCO2` [Example 68] belongs 0.007 µM; to `CC(C)CN(C[C@@H](O)[C@H](Cc1ccccc1)NC(=O)OCc1cccnc1)S(=O)(=O)c1ccc2c(c1)OCO2` [Example 69], 0.004 µM. The same measure, in the same setting: to `CC(C)CN(C[C@@H](O)[C@H](Cc1ccccc1)NC(=O)OCc1cncs1)S(=O)(=O)c1ccc2c(c1)OCO2` [Example 70] belongs 0.005 µM. Same read-out and setting: to `Cc1c(N)cccc1C(=O)N[C@@H](Cc1ccccc1)[C@H](O)CN(CC(C)C)S(=O)(=O)c1ccc2c(c1)OCO2` [Example 71] belongs 0.005 µM; to `Cc1cc(O)ccc1C(=O)N[C@@H](Cc1ccccc1)[C@H](O)CN(CC(C)C)S(=O)(=O)c1ccc2c(c1)OCO2` [Example 72], 0.005 µM; to `Cc1c(O)cccc1C(=O)N[C@@H](Cc1ccccc1)[C@H](O)CN(CC(C)C)S(=O)(=O)c1ccc2c(c1)OCO2` [Example 73], 0.004 µM.

Turning to `COc1ccc(S(=O)(=O)N(CC(C)C)C[C@@H](O)[C@H](Cc2ccccc2)NC(=O)COc2c(C)cccc2C)cc1` [Example 74], the IC50 in series [2] (Table 21, read-out: IC50) worked out at 0.003 µM. Still for that read-out and setting: next, `COc1ccc(S(=O)(=O)N(CC(C)C)C[C@@H](O)[C@H](Cc2ccccc2)NC(=O)COc2ccccc2C)cc1` [Example 75]: 0.008 µM; `COc1ccc(S(=O)(=O)N(CC(C)C)C[C@@H](O)[C@H](Cc2ccccc2)NC(=O)c2ccc3nc(N)sc3c2)cc1` [Example 76]: 0.005 µM; `CC(C)CN(C[C@@H](O)[C@H](Cc1ccccc1)NC(=O)OCc1ccccc1)S(=O)(=O)c1ccc2nc(N)sc2c1` [Example 77]: 0.002 µM.

For `CC(C)CN(C[C@@H](O)[C@H](Cc1ccccc1)NC(=O)COc1ccccc1)S(=O)(=O)c1ccc2ncsc2c1` [Example 78], the IC50 in series [2] (Table 21, read-out: IC50) was determined as 0.003 µM.

`CCCS(=O)(=O)N(CCC(C)C)C[C@@H](O)[C@H](Cc1ccccc1)NC(=O)OCc1ccccc1` [Table 1a Entry 40]: the IC50 in series [2] (setting [3]) stood at 0.21 µM.

`CC(C)CCN(C[C@@H](O)[C@H](Cc1ccccc1)NC(=O)OCc1ccccc1)S(C)(=O)=O` [Table 1a Entry 41]: in series [2] (Table 19B), the “IC50 (uM) or % inhib: % inhib @ 1 uM” value is on record as 24% and the “IC50 (uM) or % inhib: % inhib @ 10 uM” value was found to be 74%. In the same order, the values of `CC(C)CCN(C[C@@H](O)[C@H](Cc1ccccc1)NC(=O)OCc1ccccc1)S(=O)(=O)C(F)(F)F` [Table 1a Entry 50] are 42% and 89%.

Take `CC(C)CN(C[C@@H](O)[C@H](Cc1ccccc1)NC(=O)OCc1ccccc1)S(C)(=O)=O` [Table 1a Entry 51]: in series [2] (Table 19B), the “IC50 (uM) or % inhib: % inhib @ 1 uM” value stood at 31% and the “IC50 (uM) or % inhib: % inhib @ 10 uM” value worked out at 76%. As to `CC(C)CCN(C[C@@H](O)[C@H](Cc1ccccc1)NC(=O)OCc1ccccc1)S(=O)(=O)CCl` [Table 1a Entry 52], in series [2] (Table 19B), the “IC50 (uM) or % inhib: % inhib @ 1 uM” value was 39% and the “IC50 (uM) or % inhib: % inhib @ 10 uM” value came to 81%.

On to `CC(C)CN(C[C@@H](O)[C@H](Cc1ccccc1)NC(=O)OCc1ccccc1)S(=O)(=O)C=Cc1ccccc1` [Table 1a Entry 53], for which the 50% inhibitory concentration (IC50) in series [2] (setting [3]) is 0.049 µM.

For the molecule `C=CS(=O)(=O)N(CC(C)C)C[C@@H](O)[C@H](Cc1ccccc1)NC(=O)OCc1ccccc1` [Table 1a Entry 55], the IC50 in series [2] (setting [3]) came to 0.1 µM. Same read-out and setting: to `CCC(C)CN(C[C@@H](O)[C@H](Cc1ccccc1)NC(=O)OCc1ccccc1)S(=O)(=O)c1ccc(OC)cc1` (some centres unmarked) [Table 1a Entry 56] belongs 0.0036 µM.

`CC(C)CCN(C[C@@H](O)[C@H](Cc1ccccc1)NC(=O)C(NC(=O)CN(C)C)C(C)(C)C)S(C)(=O)=O` (some centres unmarked) [Table 3 Entry 2]: in series [2] (Table 19B), the “IC50 (uM) or % inhib: % inhib @ 1 uM” value was 38%. Moreover, in series [2] (Table 19B, @ 1.0 uM (second value of the cell)), the “IC50 (uM) or % inhib: % inhib @ 1.0 uM” value is 90%. Regarding `CCC(C)C(NC(=O)OCc1ccccc1)C(=O)N[C@@H](Cc1ccccc1)[C@H](O)CN(CCC(C)C)S(=O)(=O)c1ccccc1` (some centres unmarked) [Table 3 Entry 4], in series [2] (setting [3]), the half-inhibitory concentration (IC50) amounted to 0.0024 µM. With `CC(C)CCN(C[C@@H](O)[C@H](Cc1ccccc1)NC(=O)[C@@H](NC(=O)OCc1ccccc1)C(C)C)S(=O)(=O)c1ccccc1` [Table 5 Entry 1], in series [2] (setting [3]), the 50% inhibitory concentration (IC50) amounted to 0.0014 µM. On the same count and under the same terms, to `CC(C)CCN(C[C@@H](O)[C@H](Cc1ccccc1)NC(=O)[C@H](CC(N)=O)NC(=O)OCc1ccccc1)S(=O)(=O)c1ccccc1` [Table 5 Entry 14] belongs 0.0022 µM; to `CC(C)CCN(C[C@@H](O)[C@H](Cc1ccccc1)NC(=O)[C@@H](NC(=O)OCc1ccccc1)C(C)(C)C)S(=O)(=O)c1ccccc1` [Table 5 Entry 22], 0.0018 µM. Regarding `C=CCOC(=O)N[C@@H](Cc1ccccc1)[C@H](O)CN(CC(C)C)S(=O)(=O)c1ccc(OC)cc1` [Table 5 Entry 33], the half-maximal inhibitory concentration (IC50) in series [2] (setting [3]) stood at 0.0044 µM. Take `COc1ccc(S(=O)(=O)N(CC(C)C)CC(O)C(Cc2ccccc2)NC(=O)C2CCCC2)cc1` (centres unmarked) [Table 5A Entry 1]: the IC50 in series [2] (setting [4]) came to 0.04 µM. As for `CCc1ccccc1C(=O)NC(Cc1ccccc1)C(O)CN(CC(C)C)S(=O)(=O)c1ccc(OC)cc1` (centres unmarked) [Table 5A Entry 13], in series [2] (setting [4]), the 50% inhibitory concentration (IC50) was determined as 0.0098 µM. Still for that read-out and setting: next, `COc1ccc(S(=O)(=O)N(CC(C)C)CC(O)C(Cc2ccccc2)NC(=O)c2cccc(C)c2C)cc1` (centres unmarked) [Table 5A Entry 16]: 0.008 µM. As to `COc1ccc(S(=O)(=O)N(CC(C)C)CC(O)C(Cc2ccccc2)NC(=O)c2ccccc2S(C)(=O)=O)cc1` (centres unmarked) [Table 5A Entry 17], the “IC50 (uM) or % inhibition: % inhibition @ 10 μM” value in series [2] (Table 20, @ 10 μM) came out at 59% @ 10 μM.

On to `COc1ccc(S(=O)(=O)N(CC(C)C)CC(O)C(Cc2ccccc2)NC(=O)c2cccc(S(C)(=O)=O)c2)cc1` (centres unmarked) [Table 5A Entry 18], for which the half-inhibitory concentration (IC50) in series [2] (setting [4]) came to 0.13 µM. Regarding `COc1ccc(S(=O)(=O)N(CC(C)C)CC(O)C(Cc2ccccc2)NC(=O)c2ccc(S(C)(=O)=O)cc2)cc1` (centres unmarked) [Table 5A Entry 19], in series [2] (setting [4]), the IC50 stood at 0.092 µM. Take `COc1ccc(S(=O)(=O)N(CC(C)C)CC(O)C(Cc2ccccc2)NC(=O)c2ccccc2CS(C)(=O)=O)cc1` (centres unmarked) [Table 5A Entry 20]: the “IC50 (uM) or % inhibition: % inhibition @ 1 μM” value in series [2] (Table 20) turned out to be 85% @ 1 μM. Turning to `COc1ccc(S(=O)(=O)N(CC(C)C)CC(O)C(Cc2ccccc2)NC(=O)c2ccc(CS(C)(=O)=O)cc2)cc1` (centres unmarked) [Table 5A Entry 22], the “IC50 (uM) or % inhibition: % inhibition @ 1 μM” value in series [2] (Table 20) is given as 63% @ 1 μM.

For the molecule `CC(C)CN(CC(O)C(Cc1ccccc1)NC(=O)c1ccccc1)S(=O)(=O)c1ccccc1` (centres unmarked) [Table 5A Entry 24], in series [2] (setting [4]), the IC50 was 0.047 µM. Regarding `CC(C)CCN(CC(O)C(Cc1ccccc1)NC(=O)C(N)C(C)(C)C)S(=O)(=O)c1ccccc1` (centres unmarked) [Table 11 Entry 1], the IC50 in series [2] (setting [3]) was found to be 0.13 µM.

`CC(C)CCN(CC(O)C(Cc1ccccc1)NC(=O)C(NC(=O)CBr)C(C)(C)C)S(=O)(=O)c1ccccc1` (centres unmarked) [Table 12 Entry 10]: the half-inhibitory concentration (IC50) in series [2] (setting [3]) is 0.0033 µM. Consider `CSC(C)(C)[C@H](NC(=O)CN(C)C)C(=O)N[C@@H](Cc1ccccc1)[C@H](O)CN(CCC(C)C)S(=O)(=O)c1ccccc1` [Table 14 Entry 3], for which, in series [2] (setting [3]), the 50% inhibitory concentration (IC50) came to 0.0049 µM.

The record behind these values is patent USRE43802E1, “α- and β-amino acid hydroxyethylamino sulfonamides useful as retroviral protease inhibitors” (G.D. Searle LLC, priority 1992, dated 2012).
